Reference: patent US20210261621A1, “Preparation of Dilipid Polymixins and Use Thereof as Antimicrobial Adjuvants” (priority 2018, published 2021)
Like-named read-outs stand apart in the source and are kept apart here. Positions of bridges follow the written chain, without caps; N, C: chain ends. Non-standard residues stand in square brackets, D forms with d. Residues, ends and D or L forms follow the SMILES beside them. *: point of attachment. Dab = NCC[C@H](N)C(=O)O; Butyryl = CCCC(=O)*

Experiments:
[1] = system: P. aeruginosa CANWARD-2011 96846; format: cell-based, Pseudomonas aeruginosa
Procedure, shortened: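 Broth microdilution per CLSI: overnight cultures adjusted to 0.5 McFarland in saline, diluted 1:50 in Mueller-Hinton broth to ~5×10^5 CFU/mL final, and incubated with 2-fold serial compound dilutions at 37° C. for 18 h. […]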

P. aeruginosa PAO1 = system: P. aeruginosa PAO1; set-up: MICDrug / MICDrug in combo / MIC of adjuvant in combo: unit not given beside the values
pig erythrocytes = settings: red cells of pig, 1 h, 512

CCCC(=O)NCC[C@H](NC(=O)CCC)C(=O)N[C@H](C(=O)N[C@@H](CCN)C(=O)N[C@H]1CCNC(=O)[C@H]([C@@H](C)O)NC(=O)[C@H](CCN)NC(=O)[C@H](CCN)NC(=O)[C@H](CC(C)C)NC(=O)[C@@H](Cc2ccccc2)NC(=O)[C@H](CCN)NC1=O)[C@@H](C)O [Compound 1, Dibutyric Acid (Di-C4) Polymyxin] (Butyryl-[Dab](Butyryl)T[Dab][Dab][Dab][dF]L[Dab][Dab]T; lactam 4-C) was tested, and the MIC [1] was >128 µg/mL, the “MIC of adjuvant alone (MIC1, MIC2, MIC3, MIC4, MIC5, MICPMBN)” value (P. aeruginosa PAO1; adjuvant alone, one value per checkerboard, in µg/mL) was 128 and the Interpretation (P. aeruginosa PAO1; combination with Aztreonam) was “Synergy (An FIC index of ≤0.5, 0.5<x≤4, or >4 denotes for synergistic, additive or antagonistic interaction, respectively)”. For the same molecule, the Interpretation (P. aeruginosa PAO1; combination with Ceftazidime) was “Synergy (An FIC index of ≤0.5, 0.5<x≤4, or >4 denotes for synergistic, additive or antagonistic interaction, respectively)”, the Interpretation (P. aeruginosa PAO1; combination with Chloramphenicol) was “Synergy (An FIC index of ≤0.5, 0.5<x≤4, or >4 denotes for synergistic, additive or antagonistic interaction, respectively)” and the Interpretation (P. aeruginosa PAO1; combination with Ciprofloxacin) was “Synergy (An FIC index of ≤0.5, 0.5<x≤4, or >4 denotes for synergistic, additive or antagonistic interaction, respectively)”. The Interpretation (P. aeruginosa PAO1; combination with Clindamycin) was “Synergy (An FIC index of ≤0.5, 0.5<x≤4, or >4 denotes for synergistic, additive or antagonistic interaction, respectively)”, the Interpretation (P. aeruginosa PAO1; combination with Doripenem) was “Additive (An FIC index of ≤0.5, 0.5<x≤4, or >4 denotes for synergistic, additive or antagonistic interaction, respectively)” and the Interpretation (P. aeruginosa PAO1; combination with Doxycycline) was “Synergy (An FIC index of ≤0.5, 0.5<x≤4, or >4 denotes for synergistic, additive or antagonistic interaction, respectively)”. The Interpretation (P. aeruginosa PAO1; combination with Fosfomycin) was “Synergy (An FIC index of ≤0.5, 0.5<x≤4, or >4 denotes for synergistic, additive or antagonistic interaction, respectively)”, the Interpretation (P. aeruginosa PAO1; combination with Gentamicin) was “Additive (An FIC index of ≤0.5, 0.5<x≤4, or >4 denotes for synergistic, additive or antagonistic interaction, respectively)” and the Interpretation (P. aeruginosa PAO1; combination with Linezolid) was “Synergy (An FIC index of ≤0.5, 0.5<x≤4, or >4 denotes for synergistic, additive or antagonistic interaction, respectively)”. For the same molecule, the Interpretation (P. aeruginosa PAO1; combination with Meropenem) was “Synergy (An FIC index of ≤0.5, 0.5<x≤4, or >4 denotes for synergistic, additive or antagonistic interaction, respectively)”, the Interpretation (P. aeruginosa PAO1; combination with Minocycline) was “Synergy (An FIC index of ≤0.5, 0.5<x≤4, or >4 denotes for synergistic, additive or antagonistic interaction, respectively)” and the Interpretation (P. aeruginosa PAO1; combination with Moxifloxacin) was “Synergy (An FIC index of ≤0.5, 0.5<x≤4, or >4 denotes for synergistic, additive or antagonistic interaction, respectively)”. For the same molecule, the Interpretation (P. aeruginosa PAO1; combination with Novobiocin) was “Synergy (An FIC index of ≤0.5, 0.5<x≤4, or >4 denotes for synergistic, additive or antagonistic interaction, respectively)”, the Interpretation (P. aeruginosa PAO1; combination with Piperacillin) was “Additive (An FIC index of ≤0.5, 0.5<x≤4, or >4 denotes for synergistic, additive or antagonistic interaction, respectively)” and the Interpretation (P. aeruginosa PAO1; combination with Pleuromutilin) was “Synergy (An FIC index of ≤0.5, 0.5<x≤4, or >4 denotes for synergistic, additive or antagonistic interaction, respectively)”. The Interpretation (P. aeruginosa PAO1; combination with Rifampicin) was “Synergy (An FIC index of ≤0.5, 0.5<x≤4, or >4 denotes for synergistic, additive or antagonistic interaction, respectively)”, the Interpretation (P. aeruginosa PAO1; combination with Streptomycin) was “Additive (An FIC index of ≤0.5, 0.5<x≤4, or >4 denotes for synergistic, additive or antagonistic interaction, respectively)” and the Interpretation (P. aeruginosa PAO1; combination with Tobramycin) was “Additive (An FIC index of ≤0.5, 0.5<x≤4, or >4 denotes for synergistic, additive or antagonistic interaction, respectively)”. The Interpretation (P. aeruginosa PAO1; combination with Trimethoprim) was “Synergy (An FIC index of ≤0.5, 0.5<x≤4, or >4 denotes for synergistic, additive or antagonistic interaction, respectively)”, the Interpretation (P. aeruginosa PAO1; combination with Vancomycin) was “Synergy (An FIC index of ≤0.5, 0.5<x≤4, or >4 denotes for synergistic, additive or antagonistic interaction, respectively)” and the “MIC of adjuvant in combo” value (P. aeruginosa PAO1; in combination with Aztreonam) was “(32)”. The “MIC of adjuvant in combo” value (P. aeruginosa PAO1; in combination with Ceftazidime) was “(32)”, the “MIC of adjuvant in combo” value (P. aeruginosa PAO1; in combination with Chloramphenicol) was “(4)” and the “MIC of adjuvant in combo” value (P. aeruginosa PAO1; in combination with Ciprofloxacin) was “(32)”. For the same molecule, the “MIC of adjuvant in combo” value (P. aeruginosa PAO1; in combination with Clindamycin) was “(8)”, the “MIC of adjuvant in combo” value (P. aeruginosa PAO1; in combination with Doripenem) was “(32)” and the “MIC of adjuvant in combo” value (P. aeruginosa PAO1; in combination with Doxycycline) was “(2)”. For the same molecule, the “MIC of adjuvant in combo” value (P. aeruginosa PAO1; in combination with Fosfomycin) was “(16)”, the “MIC of adjuvant in combo” value (P. aeruginosa PAO1; in combination with Gentamicin) was “(0.0625)” and the “MIC of adjuvant in combo” value (P. aeruginosa PAO1; in combination with Linezolid) was “(4)”. For the same molecule, the “MIC of adjuvant in combo” value (P. aeruginosa PAO1; in combination with Meropenem) was “(32)”, the “MIC of adjuvant in combo” value (P. aeruginosa PAO1; in combination with Minocycline) was “(2)” and the “MIC of adjuvant in combo” value (P. aeruginosa PAO1; in combination with Moxifloxacin) was “(16)”. The “MIC of adjuvant in combo” value (P. aeruginosa PAO1; in combination with Novobiocin) was “(8)”, the “MIC of adjuvant in combo” value (P. aeruginosa PAO1; in combination with Piperacillin) was “(32)” and the “MIC of adjuvant in combo” value (P. aeruginosa PAO1; in combination with Pleuromutilin) was “(8)”. For the same molecule, the “MIC of adjuvant in combo” value (P. aeruginosa PAO1; in combination with Rifampicin) was “(2)”, the “MIC of adjuvant in combo” value (P. aeruginosa PAO1; in combination with Streptomycin) was “(32)” and the “MIC of adjuvant in combo” value (P. aeruginosa PAO1; in combination with Tobramycin) was “(0.5)”. For the same molecule, the “MIC of adjuvant in combo” value (P. aeruginosa PAO1; in combination with Trimethoprim) was “(16)”, the “MIC of adjuvant in combo” value (P. aeruginosa PAO1; in combination with Vancomycin) was “(32)” and the “% Hemolysis at 512 μg/mL of polymyxin” value (pig erythrocytes) was 1.1 ± 1.6%.
